# Source: patent US8993622B2, “Antiviral compounds” (Eirium AB, priority 2010, dated 2015)
# Read-outs that look alike come from different tables or passages of the source.
# Legend:
# Ad5 = experiment: microbe, parasite or virus in culture; assay type: cell-based, human adenovirus; settings: for inhibition at 5 µM: A549, read-out: % Inh. at 5 μM; for inhibition at 20 µM: A549, read-out: % Inh. at 20 μM; for activity compared with A02 (inhibition of adenovirus replication): second generation inhibitors, Table 4; for Inh. (% inhibition of Ad5 at 15 μM): Ad5, 15 μM (Table 2)
# cells = experiment: Cellular toxicity of select compounds (% dead cells, CC50); assay type: cell-based
# [1] = system: coxsackievirus A24 variant (CVA24v); experiment: Coxsackievirus fluorescent focus assay in HCE cells; assay type: cell-based; design: key: +++: No visible fluorescence was observed; ++: some infected cells were detected; settings: 18 h
# Description: Approximately 2×10^5 human corneal epithelial (HCE) cells were plated in 24-well plates the day prior infection. On the day of infection the media was removed and was replaced with media containing 70 virus particles of CVA24v per cell and serial dilutions of compound 35j, ranging from 50- to 6.25 μM. After 18 h of incubation at 37° C. in 5% CO2, the cells were fixed using ice-cold 100% methanol for 5 min. Thereafter, the cells were incubated with a monoclonal mouse anti-VP1 structural protein antibody (clone 5-D8/1, DakoCytomation) diluted 1:200 in PBS, for 1 h in RT. The cells were then washed with PBS and incubated with FITC labeled anti-mouse secondary antibody (DakoCytomation), diluted 1:100 for 1 h, RT, in the dark. Further, unbound antibody was washed away in PBS and the cells were examined in fluorescent microscope.
# [2] = Cellular toxicity of select compounds (% dead cells, CC50); assay type: cell-based; settings: conclusions
# [3] = unidentified adenovirus, A549, read-out: % Inh. at 15 μM
# [4] = Human adenovirus sp., A549, read-out: Inh. (% inhibition of Ad5 at 15 μM)
Structure (SMILES),"EC50 (Ad5; unidentified adenovirus, A549)",inhibition at 5 µM (Ad5; unidentified adenovirus),inhibition at 15 µM (Ad5; [3]),Toxicity at 30 μM (% dead cells after 24 h) (cells),Toxicity at 60 μM (% dead cells after 24 h) (cells),other results
"O=C(Nc1ccc(Cl)cc1C(=O)Nc1ccccc1C(=O)O)c1ccccc1F [Compound 35g, 2-[5-chloro-2-(2-fluorobenzoylamino)-benzoylamino]benzoic acid]",680 nM,89 ± 2%,91 ± 2%,11 ± 7%,24 ± 9%,–
"O=C(Nc1cc(Cl)ccc1C(=O)Nc1ccccc1C(=O)O)c1ccccc1F [Compound 35f, 2-[4-chloro-2-(2-fluorobenzoylamino)-benzoylamino]benzoic acid]",4140 nM,57 ± 5%,78 ± 2%,14 ± 5%,25 ± 8%,–
"O=C(Nc1cc(F)c(F)cc1C(=O)Nc1ccccc1C(=O)O)c1ccccc1F [Compound 35j, 2-[4,5-difluoro-2-(2-fluorobenzoylamino)-benzoylamino]benzoic acid]",270 nM,94 ± 3%,93 ± 2%,6 ± 4%,16 ± 9%,"toxicity/activity selectivity index (Ad5; CC50/EC50): 890; EC50 (Ad5; Human adenovirus sp., A549, read-out: EC50-value): 300 nM; Relative inhibition of CVA24v ([1]; 6.25 μM): ++; Relative inhibition of CVA24v ([1]; 12.5 μM): ++; Relative inhibition of CVA24v ([1]; 25 μM): +++; Relative inhibition of CVA24v ([1]; 50 μM): +++; CC50 [2]: 240000 nM"
"CS(=O)(=O)Nc1ccccc1C(=O)Nc1ccccc1C(=O)O [Compound 17b, 2-[2-(Methanesulfonylamino)benzoylamino]benzoic acid]",–,0%,23 ± 12%,–,–,–
"O=C(Nc1ccccc1C(=O)Nc1ccccc1C(=O)O)c1cccc(F)c1 [Compound 17i, 2-[2-(3-Fluorobenzoylamino)-benzoylamino]benzoic acid]",–,41 ± 32%,0%,–,–,–
"O=C(Nc1ccccc1C(=O)Nc1ccccc1)c1ccccc1 [Compound 11, 2-Benzoylamino-N-phenyl-benzamide]",–,–,–,–,–,inhibition at 15 µM (Ad5; [4]): 18%
"O=C(Cc1ccccc1)Nc1ccccc1C(=O)Nc1ccccc1C(=O)O [Compound 17k, 2-[2-(Phenylacetylamino)benzoylamino]benzoic acid]",–,32 ± 19%,21 ± 12%,–,–,–
"COc1ccc(C(=O)Nc2ccccc2C(=O)O)c(NC(=O)c2ccccc2F)c1 [Compound 35h, 2-[4-methoxy-2-(2-fluorobenzoylamino)-benzoylamino]benzoic acid]",1500 nM,92 ± 3%,89 ± 6%,10 ± 15%,18 ± 15%,–
"O=C(O)CCC(=O)Nc1ccccc1C(=O)Nc1ccccc1C(=O)O [Compound 17f, 2-[2-(4-Carboxybutanoylamido)benzoyl]aminobenzoic acid]",–,0%,0%,–,–,–
"O=C(Nc1ccccc1C(=O)Nc1ccccc1C(=O)O)c1ccc(F)cc1 [Compound 17j, 2-[2-(4-Fluorobenzoylamino)-benzoylamino]benzoic acid]",3500 nM,76 ± 10%,95 ± 1%,14 ± 10%,10 ± 10%,–
"Cc1ccc(C(=O)Nc2ccccc2C(=O)Nc2ccccc2C)cc1 [Compound 12g, 4-Methyl-N-{2-[(2-methylphenyl)carbamoyl]phenyl}-benzamide]",–,–,–,–,–,inhibition at 5 µM (Ad5; Human adenovirus sp.): 24.5%; inhibition at 20 µM (Ad5; Human adenovirus sp.): 22.2%
"O=C(O)c1ccccc1NC(=O)c1ccccc1NCc1ccccc1 [Compound 17g, 2-[2-(Benzylamino)benzoylamino]benzoic acid]",11400 nM,44 ± 17%,79 ± 5%,6 ± 10%,11 ± 13%,activity compared with A02 (inhibition of adenovirus replication) (Ad5): diminished but not abolished activity
"CC(=O)Nc1ccccc1C(=O)Nc1ccccc1C(=O)O [Compound 17a, 2-[2-(Acetylamino)benzoylamino]benzoic acid]",–,4 ± 11%,24 ± 14%,–,–,–
"O=C(Nc1cccc(C(=O)Nc2ccccc2C(=O)O)c1)c1ccccc1 [Compound 8c, 2-[(3-benzoylamino)benzoylamino]-benzoic acid]",–,–,–,–,–,Inh. (% inhibition of Ad5 at 15 μM) (Ad5): 39%
"O=C(O)Cc1ccccc1NC(=O)c1ccccc1NC(=O)c1ccccc1 [Compound 23, 2-[2-(benzoylamino)benzoylamino]phenylacetic acid]",–,0%,0%,–,–,–
"COc1ccc(NC(=O)c2ccccc2NC(=O)c2ccccc2F)c(C(=O)O)c1 [Compound 35d, 2-[2-(2-fluorobenzoylamino)-benzoylamino]-5-methoxybenzoic acid]",–,28 ± 20%,78 ± 3%,–,–,–
"CC(C)(C)C(=O)Nc1ccccc1C(=O)Nc1ccccc1C(=O)O [Compound 17d, 2-[2-(Trimethylacetylamino)benzoylamino]benzoic acid]",–,45 ± 7%,52 ± 18%,–,–,–
"CCOC(=O)c1ccc(NC(=O)c2ccccc2NC(=O)c2ccccc2)cc1 [Compound 7b, Ethyl 4-[(2-benzoylamino)benzoylamino]-benzoate]",–,–,–,–,–,Inh. (% inhibition of Ad5 at 15 μM) (Ad5): 8%
"COc1ccc(C(=O)Nc2ccccc2C(=O)Nc2ccccc2C(=O)O)cc1 [Compound 12f, 2-[[2-(4-Methoxy-benzoylamino)benzoyl]amino]-benzoic acid]",–,–,–,–,–,inhibition at 5 µM (Ad5; Human adenovirus sp.): 25.2%; inhibition at 20 µM (Ad5; Human adenovirus sp.): 96.5%
"CCOC(=O)c1cccc(NC(=O)c2ccccc2NC(=O)c2ccccc2)c1 [Compound 7a, 4-Ethyl 3-[(2-benzoylamino)benzoylamino]-benzoate]",–,–,–,–,–,inhibition at 15 µM (Ad5; [4]): 0%
"O=C(Nc1ccccc1C(=O)Nc1ccccc1C(=O)O)c1ccccc1F [Compound 17h, 2-[2-(2-Fluorobenzoylamino)-benzoylamino]benzoic acid]",2300 nM,96 ± 1%,96 ± 1%,17 ± 9%,29 ± 12%,activity compared with A02 (inhibition of adenovirus replication) (Ad5): statistically significantly higher activity than A02; cellular toxicity compared with A02 (cells; Table 7): slightly more toxic than A02
"COc1ccc(NC(=O)c2ccccc2F)c(C(=O)Nc2ccccc2C(=O)O)c1 [Compound 35i, 2-[5-methoxy-2-(2-fluorobenzoylamino)-benzoylamino]benzoic acid]",1400 nM,91 ± 6%,97 ± 1%,18 ± 12%,28 ± 12%,–
